# Data published in patent publication US8173633B2, “Protein kinase C activity enhancer containing alkyl ether derivative or salt thereof” (Toyama Chemical Co., Ltd., priority 2006, dated 2012).
# Target: T1, PKCε (Rattus norvegicus, UniProt P09216)
# T1 construct: The cerebral cortex was removed from 18-day fetuses of Wistar/ST rats; endogenous in cells; host or cells: primary cultured cerebral cortex cells from 18-day fetuses of Wistar/ST rats
# T1 sequence (P09216 1-737): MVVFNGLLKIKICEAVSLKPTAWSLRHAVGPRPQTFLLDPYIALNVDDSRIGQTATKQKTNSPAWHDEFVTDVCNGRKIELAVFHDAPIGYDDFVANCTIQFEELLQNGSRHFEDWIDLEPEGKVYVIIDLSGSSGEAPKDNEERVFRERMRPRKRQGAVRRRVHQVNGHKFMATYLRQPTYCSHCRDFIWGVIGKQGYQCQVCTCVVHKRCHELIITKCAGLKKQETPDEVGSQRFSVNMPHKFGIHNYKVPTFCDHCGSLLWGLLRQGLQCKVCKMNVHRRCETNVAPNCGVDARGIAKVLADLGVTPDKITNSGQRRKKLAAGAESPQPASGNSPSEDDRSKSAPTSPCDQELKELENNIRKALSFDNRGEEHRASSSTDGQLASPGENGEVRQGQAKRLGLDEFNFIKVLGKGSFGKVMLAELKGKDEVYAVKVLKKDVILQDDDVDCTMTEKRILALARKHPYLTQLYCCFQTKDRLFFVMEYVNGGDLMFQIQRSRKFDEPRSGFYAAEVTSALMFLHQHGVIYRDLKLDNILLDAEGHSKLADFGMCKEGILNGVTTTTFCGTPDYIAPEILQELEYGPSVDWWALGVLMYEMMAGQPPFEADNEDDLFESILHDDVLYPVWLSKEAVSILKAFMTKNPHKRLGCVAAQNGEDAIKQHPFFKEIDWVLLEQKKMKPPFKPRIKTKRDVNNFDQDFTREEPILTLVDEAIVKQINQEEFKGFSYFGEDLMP
# Assay: PKC activity enhancing effect in cultured cells (PKCε migration from cytosol to membrane fraction, western blotting)
# Type: cell-based, Wistar/ST rats
# Conditions: cultured fetal rat cerebral cortex cells, 0.1 μmol/L in terms of T-817, FIG. 1
# Description: The PKC activity was determined, according to the method of Etcheberrigaray et al. (Proceedings of the National Academy of Sciences of the United States of America, 2004, Vol. 101, No. 30, p. 11141-11146), as applicable. At the time of activation, PKC migrates from the cytoplasm to membranes. The PKC level in the membrane fraction over that in the cytosol fraction was taken as the index of PKC activation. In this experiment, the activity of PKCε, a known isoform of PKC, was measured.
# Cultured cells were prepared following the method of Hirata et al. (J. Pharmacol. Exp. Ther., 2005, Vol. 314, No. 1, p. 252-259). […]
# On Day 8 from the start of the culturing, T-817MA was added to the cells to a final concentration of 0.1 μmol/L, in terms of T-817, After this addition, the cells were washed with PBS at 0 (untreated), 1, 2 and 4 hours. […] The protein concentration in the cytosol fraction and the membrane fraction was measured, and the protein content in each sample was adjusted to a certain constant level with the extraction buffer or the extraction buffer containing Triton X-100, These samples were then diluted with electrophoresis buffer containing mercaptoethanol (manufactured by Wako Pure Chemical Industries Ltd.) and SDS-PAGE (40 mA, 30 minutes) was carried on 10% polyacrylamide gel. […]
structure (smiles),measurement,setting,value
O=C(O)/C=C\C(=O)O.OC1CN(CCCOCCc2ccc3sccc3c2)C1 [T-817MA],PKCε migration from the cytoplasm to membranes (index of PKC activation),2 hours after treatment,migrated from the cytoplasm to membranes
same,PKCε migration from the cytoplasm to membranes (index of PKC activation),4 hours after treatment,migrated from the cytoplasm to membranes
